Measured values reported in patent US20240122879A1, “COMPOSITIONS AND METHODS FOR TREATING OCULAR CHEMICAL BURNS” (OHIO STATE INNOVATION FOUNDATION, priority 2022, published 2024).

Key:
Type in all cases: cell-based, mouse
mCEC [1] = test: Scratch wound assay of mCECs treated with recombinant cytokines; conditions: recombinant proteins, FIG. 4A, 4B
Description: (§1) Recombinant pro-IL-1β and pro-IL-18 proteins were generated from E. coli. The proteins were treated with caspase 1 to obtain the active forms.
The coding sequences of human pro-IL-18 and pro-IL-1β were cloned into the PET28a vector, where an N-terminal 6xHis tag is added. The purification procedure is similar to the published protocol with minor modifications (Ramirez, et al. J Biol Chem. 2018 293(18): 7058-7067). Briefly, the respective plasmid was transformed into BL21 […] chemically competent cells. A single colony was picked to grow in LB media at 37° C. until OD600 researched 0.6, and 0.5 mM IPTG was used for overnight induction at ˜16° C. Harvested cells were collected by centrifugation, followed by resuspension in 50 mM Hepes (pH 7.5), 5 mM MgCl2, 1 mM PMSF, ˜0.5 mg/ml lysozyme and 50-100 U DNase I. After sonication, the cell lysates were centrifuged. The supernatant was then applied to a Ni-NTA affinity chromatography, where buffer A contained 50 mM Hepes (pH 7.5) and Buffer B contained an extra 500 mM imidazole. Fractions with the highest purities were pooled and applied to a diethylaminoethyl-cellulos (DEAE) ion exchange chromatography, where buffer A′ contained 50 mM Hepes (pH 7.5) and Buffer B′ contained an extra 500 mM NaCl. As judged by SDS PAGE, fractions with >95% purity were pooled and dialyzed in 50 mM Hepes (pH 7.5) and 100 mM NaCl.
Recombinant human caspase-1 was purchased from Enzo Life Sciences (ALX-201-056). The cleavage of pro-IL-18 or pro-IL-1β was performed at 37° C. in PBS buffer containing 2 mM DTT.
To induce cellular migration, an in vitro scratch test was performed using mCECs. Cells were treated with dissected corneas or cytokines when they reached confluence, were subsequently scratched with a micropipette tip, and incubated for up to 12 hrs. Images were taken at 0, 3, 6, and 9 hours after the initial scratch. Images of wound closure were quantified by using ImageJ software.

corneal epithelial cells = test: ZO-1 staining of corneal epithelial cells treated with recombinant proteins; conditions: FIG. 4D, 4E
Description: as §1

mCEC [2] = test: Transepithelial electrical resistance (TEER) of mCEC treated with recombinant proteins; conditions: FIG. 4C
Description: as §1
mCEC were seeded in transwell inserts (2×10^5 per well) and allowed to become confluent. For the protein treatment, proteins were added into the culture medium 16 or 4 hours before measurement; the EVOM2 instrument was used to measure the TEER. For the co-culture experiments, mCEC were seeded in the transwell inserts and allowed to become confluent. The isolated primary neutrophils were then seeded into 24 well plates and the EVOM2 instrument was used to measure the TEER at 24 hr.

Substance | mCEC wound closure / migration (mCEC [1]) | tight junctions by ZO-1 staining (corneal epithelial cells) | epithelial tight junctions / electrical resistance by TEER (mCEC [2]) | other results
active IL-18: recombinant human pro-IL-18 from E. coli treated with caspase 1 to obtain the active form | significantly delayed mCEC wound closure | disrupted epithelial cell tight junctions | disrupted epithelial cell tight junctions | mCEC wound closure / migration (mCEC [1]; listed as activated IL-18): significantly suppress corneal epithelial cell migration; tight junctions by ZO-1 staining (corneal epithelial cells; listed as activated IL-18): tight junction was disrupted; epithelial tight junctions / electrical resistance by TEER (mCEC [2]; listed as activated IL-18): significantly reduce the electrical resistance
active IL-1β: recombinant human pro-IL-1β from E. coli treated with caspase 1 to obtain the active form | significantly delayed mCEC wound closure | disrupted epithelial cell tight junctions | disrupted epithelial cell tight junctions | mCEC wound closure / migration (mCEC [1]; listed as activated IL-1β): significantly suppress corneal epithelial cell migration; tight junctions by ZO-1 staining (corneal epithelial cells; listed as activated IL-1β): tight junction was disrupted; epithelial tight junctions / electrical resistance by TEER (mCEC [2]; listed as activated IL-1β): significantly reduce the electrical resistance
pro-IL-18: recombinant pro-IL-18 protein generated from E. coli, used as control | failed to alter mCEC migration | – | – | –
boiled IL-1β: boiled recombinant IL-1β protein used as control | failed to alter mCEC migration | – | – | –
boiled IL-18: boiled recombinant IL-18 protein used as control | failed to alter mCEC migration | – | – | –
pro-IL-1β: recombinant pro-IL-1β protein generated from E. coli, used as control | failed to alter mCEC migration | – | – | –
